The results in this text go back to US4871745A, “2- or 3-aryl substituted imidazo(1,2-A)pyridines and their use as antisecretory agents” (Ortho Pharmaceutical Corporation, priority 1988, dated 1989).

The target in assay [1] is T1, calcium channel (nitrendipine binding) (Oryctolagus cuniculus, UniProt P15381).
T1 construct: the heart was immediately removed, cleaned and chopped into small pieces; from tissue; host or cells: rabbit heart, crude membrane pellet (42,000×g)
The experiment in a line: Inhibition of 3H-nitrendipine binding (heart membranes), calcium channel blocking activity. Conditions: 3H-nitrendipine 0.05-0.50 nM; rabbit heart membranes; 90 min at 4° C.; pH 7.4; read-out: B: IC50 (inhibition of nitrendipine binding). Details: species or system female New Zealand white rabbits. As to the method:
(§1) The calcium channel blocking activity of the above compounds was determined by measuring (A) the inhibition of calcium dependent smooth muscle contraction and (B) inhibition of nitrendipine binding as follows.
(B) The inhibition of nitrendipine binding was determined by following the procedures of Bolger et al., Biochem. Biophys. Res. Comm. 104, 1604 (1982) and Ehlert et al., Life Sciences 30, 2191 (1982). Basically, female New Zealand white rabbits (1-2 kg) were sacrificed by cervical dislocation, and the heart was immediately removed, cleaned and chopped into small pieces. The tissue was homogenized in 5× volume of 0.05M Hepes buffer, pH 7.4. The homogenate was centrifuged at 400×g for 10 minutes; the supernatant was recentrifuged at 42,000×g for 90 minutes. The resulting membrane pellet was resuspended (0.7 ml/g weight) in 0.05M Hepes, pH 7.4, and stored at -70° C. until used. Each tube of the binding assay contained ^3 H-nitrendipine (0.05-0.50 nM), buffer, membranes (0.10 ml), and test compound in a total volume of 1.0 ml. After 90 minutes at 4° C., the bound nitrendipine was separated from the unbound by filtration to Whatman GF/C fibers. After rinsing, the filters were dried and counted in a liquid scintillation counter.
Non-specific binding of ^3 H-nitrendipine (that amount bound in the presence of excess unlabelled nitrendipine) was subtracted from the total bound to obtain specifically bound radiolabeled nitrendipine. The amount of specifically bound nitrendipine in the presence of a test compound was compared to that amount bound in the absence of a compound. A percent displacement (or inhibition) was then obtained.

The subject of assay [2] is quadriceps femoris muscle of one hind leg. Kind of assay: Local anesthetic activity: impaired ability of mice to grasp inverted screen after injection into quadriceps femoris muscle. Particulars: Mus musculus, im, 5 min; overnight-fasted mice; 0.05 ml solution or suspension (w/v) injected into quadriceps femoris muscle of one hind leg; observed 5 min later; read-out: Concentration (in %) of Compound Causing Local Anesthetic Activity. Format: in vivo, male albino overnight-fasted mice. As for the experimental part:
The local anesthetic activity of the above compounds was tested as follows.
The test compounds were dissolved or suspended in a 0.5% aqueous methylcellulose solution containing 0.4% (v/v) of Tween 80, The polyoxyethylene derivative of a sorbitan ester. Doses of up to 100 mg/kg were administered orally by gagvage tube to groups of three male albino overnight-fasted mice (18 to 24 g) which were observed intermittently for one hour. The mice were gently restrained and 0.05 ml of a 1% (w/v) solution or suspension of the test compound was injected into the quadriceps femoris muscle of one hind leg. Five minutes later, the mice were individually placed on a wire mesh screen. The wire mesh screen was then inverted. […] The response to the test compounds was compared to a similarly treated vehicle control group of mice.

The next assay concerns gastric acid secretion. Kind of assay: Antisecretory activity: gastric acid secretion in pylorus-ligated rats. Format: in vivo, male Charles River Sprague Dawley derived rats. Conditions: Rattus norvegicus, intraduodenal or s.c., 4 h after ligation, acid output compared to control, read-out: % Acid Secreted. As to the method: The antisecretory activity of the above compounds was determined by measuring gastric acid secretion using pylorus ligation in a modification of the procedure of Shay et al., Gastroenterology 26, 906 (1954). Basically, male Charles River Sprague Dawley derived rats weighing 150-300 grams were deprived of food but not water for 18-24 hours prior to use. Water was withheld during the experiment, however. The rats were weighed, anesthesized with ether and the pylorus ligated according to the method of Shay et al., supra. Treatment or vehicle control was then administered intraduodenally (i.d.) or subcutaneously (s.c.). Rats were housed two/cage and sacrificed with CO2 four hours after ligation. The stomachs were removed, rinsed, and contents emptied into a graduated centrifuge tube. The tubes were centrifuged, the volume of gastric juice recorded, and any samples obviously contamined by feces, food or blood were eliminated. A 1 ml aliquot of gastric juice was titrated with 0.1N NaOH to a pH of 7.0-7.4. The volume of gastric juice secreted, the acid concentration, and the product of the volume times the concentration, i.e., the total amount of acid secreted, were measured.

In assay [3] the test system is calcium dependent smooth muscle contraction (trachealis muscle tissue). Kind of assay: Inhibition of calcium dependent smooth muscle contraction (tracheal rings, KCl challenge). It counts as cell-based, dogs. Conditions: Canis lupus familiaris, 10 μM test compound for 10 min, dog tracheal rings, 30 min, 37° C. As for the experimental part: as §1
(A) Trachea from dogs sacrificed by excess KCl injection were stored overnight at 4° C. in oxygenated Krebs-Henseleit buffer. Tracheal rings, one cartilage segment wide (5-10 mm) were cut starting from the bronchial end. After cutting the cartilage, the trachealis muscle tissue was suspended in oxygenated Krebs-Henseleit buffer at 37° C. in a 25 ml tissue bath. After a 60 minute equilibration period, the tissues were challenged with 10 μM carbachol. After five minutes, the tissues were rinsed and allowed to rest 50 minutes. The tissues were then challened with 50 mM KCl and, after 30 minutes, the contracts were quantitated. The tissues were then rinsed and re-equilibrated for 50 minutes. Test compounds were then added at 10 μM for 10 minutes, and the tissues were rechallenged with 40 mM KCl.
The percent inhibition of smooth muscle contraction was calculated from response data before and after drug treatment. [formula]

Molecules are shown by their SMILES. Bounds are passed on as bounds.

T1 sequence (P15381 whole entry, other chains not shown): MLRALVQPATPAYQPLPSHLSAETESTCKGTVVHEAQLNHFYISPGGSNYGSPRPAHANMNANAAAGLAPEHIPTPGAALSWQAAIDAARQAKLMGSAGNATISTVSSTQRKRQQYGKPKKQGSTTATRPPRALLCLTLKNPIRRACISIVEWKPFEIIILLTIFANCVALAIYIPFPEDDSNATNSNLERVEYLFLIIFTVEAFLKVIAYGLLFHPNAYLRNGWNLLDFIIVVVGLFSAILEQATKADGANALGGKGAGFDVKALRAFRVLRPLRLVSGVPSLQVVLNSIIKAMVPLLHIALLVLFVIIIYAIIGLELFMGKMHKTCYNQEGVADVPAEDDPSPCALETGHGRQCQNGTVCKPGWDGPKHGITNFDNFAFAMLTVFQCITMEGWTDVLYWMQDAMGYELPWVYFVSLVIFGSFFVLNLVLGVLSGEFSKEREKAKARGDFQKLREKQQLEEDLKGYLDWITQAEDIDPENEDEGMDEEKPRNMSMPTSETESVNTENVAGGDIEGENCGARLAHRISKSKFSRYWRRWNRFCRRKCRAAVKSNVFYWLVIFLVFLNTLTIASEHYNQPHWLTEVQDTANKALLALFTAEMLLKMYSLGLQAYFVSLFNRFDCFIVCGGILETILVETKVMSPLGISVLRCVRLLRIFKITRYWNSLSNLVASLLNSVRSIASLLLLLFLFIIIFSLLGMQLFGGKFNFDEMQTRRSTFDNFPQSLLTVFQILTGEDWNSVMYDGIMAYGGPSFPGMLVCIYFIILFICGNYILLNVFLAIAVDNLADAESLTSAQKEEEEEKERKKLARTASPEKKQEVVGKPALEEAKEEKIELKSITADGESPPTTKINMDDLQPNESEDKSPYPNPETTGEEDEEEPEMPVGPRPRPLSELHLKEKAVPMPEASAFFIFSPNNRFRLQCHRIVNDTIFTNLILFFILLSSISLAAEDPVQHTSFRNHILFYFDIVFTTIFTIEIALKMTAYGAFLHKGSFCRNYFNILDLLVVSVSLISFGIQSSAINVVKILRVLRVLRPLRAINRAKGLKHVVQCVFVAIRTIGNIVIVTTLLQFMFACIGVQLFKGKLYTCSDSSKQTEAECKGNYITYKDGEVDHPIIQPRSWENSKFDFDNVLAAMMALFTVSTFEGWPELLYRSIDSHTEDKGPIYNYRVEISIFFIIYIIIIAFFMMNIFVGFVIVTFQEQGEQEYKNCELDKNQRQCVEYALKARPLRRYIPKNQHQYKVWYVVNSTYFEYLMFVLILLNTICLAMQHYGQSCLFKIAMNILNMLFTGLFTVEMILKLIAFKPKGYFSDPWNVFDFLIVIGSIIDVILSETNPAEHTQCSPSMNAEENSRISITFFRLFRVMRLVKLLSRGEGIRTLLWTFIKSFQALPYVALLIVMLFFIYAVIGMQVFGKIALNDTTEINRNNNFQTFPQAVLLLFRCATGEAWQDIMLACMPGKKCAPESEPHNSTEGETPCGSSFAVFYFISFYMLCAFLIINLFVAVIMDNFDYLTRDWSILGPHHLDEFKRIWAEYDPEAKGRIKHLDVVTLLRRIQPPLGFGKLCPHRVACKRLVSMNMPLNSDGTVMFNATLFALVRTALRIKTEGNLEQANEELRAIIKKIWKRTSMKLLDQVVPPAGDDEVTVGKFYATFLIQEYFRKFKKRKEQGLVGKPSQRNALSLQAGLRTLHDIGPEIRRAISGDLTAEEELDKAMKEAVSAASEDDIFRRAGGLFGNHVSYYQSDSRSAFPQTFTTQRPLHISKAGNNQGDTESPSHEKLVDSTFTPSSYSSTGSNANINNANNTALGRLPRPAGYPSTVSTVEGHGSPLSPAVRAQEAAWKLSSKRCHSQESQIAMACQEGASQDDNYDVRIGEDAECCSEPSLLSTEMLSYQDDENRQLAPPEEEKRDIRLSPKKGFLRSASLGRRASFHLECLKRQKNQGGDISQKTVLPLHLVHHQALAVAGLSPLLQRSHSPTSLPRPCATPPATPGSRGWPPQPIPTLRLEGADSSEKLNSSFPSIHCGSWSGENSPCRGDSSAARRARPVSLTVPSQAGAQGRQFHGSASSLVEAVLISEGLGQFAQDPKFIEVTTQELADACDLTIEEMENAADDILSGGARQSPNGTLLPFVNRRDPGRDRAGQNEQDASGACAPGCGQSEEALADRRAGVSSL
T1 sequence (P13806 27-960 partner limits assumed, other chains not shown): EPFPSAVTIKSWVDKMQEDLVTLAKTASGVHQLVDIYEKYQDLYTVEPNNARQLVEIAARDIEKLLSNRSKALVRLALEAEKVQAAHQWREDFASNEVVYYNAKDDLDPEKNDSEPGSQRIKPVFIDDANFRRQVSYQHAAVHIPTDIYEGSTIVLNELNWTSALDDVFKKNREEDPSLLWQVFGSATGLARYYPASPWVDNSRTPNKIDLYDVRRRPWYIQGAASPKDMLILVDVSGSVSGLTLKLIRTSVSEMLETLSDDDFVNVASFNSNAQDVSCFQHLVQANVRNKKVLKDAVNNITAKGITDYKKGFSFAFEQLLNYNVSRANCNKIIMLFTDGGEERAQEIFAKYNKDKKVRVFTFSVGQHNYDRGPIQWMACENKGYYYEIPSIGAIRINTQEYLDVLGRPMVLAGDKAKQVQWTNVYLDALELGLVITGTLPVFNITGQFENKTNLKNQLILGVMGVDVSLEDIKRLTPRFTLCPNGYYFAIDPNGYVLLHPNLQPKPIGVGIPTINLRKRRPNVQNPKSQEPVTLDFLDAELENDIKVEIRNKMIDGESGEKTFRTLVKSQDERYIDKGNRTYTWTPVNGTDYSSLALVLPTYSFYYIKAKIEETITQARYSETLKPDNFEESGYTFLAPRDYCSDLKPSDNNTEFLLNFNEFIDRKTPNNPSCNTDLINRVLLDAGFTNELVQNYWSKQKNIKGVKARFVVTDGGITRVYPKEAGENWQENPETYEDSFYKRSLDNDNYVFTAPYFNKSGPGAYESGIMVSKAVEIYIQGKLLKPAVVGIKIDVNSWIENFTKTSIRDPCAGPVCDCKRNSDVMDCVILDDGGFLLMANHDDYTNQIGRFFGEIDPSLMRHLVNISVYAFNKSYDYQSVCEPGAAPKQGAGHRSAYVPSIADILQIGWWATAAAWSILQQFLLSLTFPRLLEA
T1 sequence (P13806 961-1106 partner limits assumed, other chains not shown): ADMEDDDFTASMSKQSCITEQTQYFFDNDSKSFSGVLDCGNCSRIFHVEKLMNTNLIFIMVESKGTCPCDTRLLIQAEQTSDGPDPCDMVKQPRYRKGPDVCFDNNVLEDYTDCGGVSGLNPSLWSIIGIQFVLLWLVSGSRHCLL

As to `CCCCN(CCCC)CCCOc1ccc(-c2cn3ccccc3n2)cc1` [Example 1, 2-(4-Dibutylaminopropoxyphenyl)imidazo[1,2-a]pyridine], the IC50 in assay [1] worked out at 2700 nM. For the same compound, the minimal effective concentration in assay [2] worked out at 1000 µg/mL. The change in vivo at 20 mg/kg in the assay on gastric acid secretion was -41%. In addition, in assay [3], the inhibition at 10 µM is 54%.
As for `CCCCN(CCCC)CCCOc1ccc(-c2cn3cccc(C)c3n2)cc1` [Example 2, 2-(4-Dibutylaminopropoxyphenyl)-8-methylimidazo[1,2-a]pyridine], the IC50 in assay [1] came to 600 nM. The minimal effective concentration in assay [2] came to 10 µg/mL. In the assay on gastric acid secretion, the change in vivo at 20 mg/kg is -91%. Further, in assay [3], the inhibition at 10 µM turned out to be 61%.
In the same order, the values of `CCCCN(CCCC)CCCOc1ccc(-c2cn3cc(Br)ccc3n2)cc1` [Example 3, 2-(4-Dibutylaminopropoxyphenyl)-6-bromoimidazo[1,2-a]pyridine] are 2500 nM, 10000 µg/mL, -18% and 32%.
On to `CCCCN(CCCC)CCCOc1ccc(-c2cn3ccc(C)cc3n2)cc1` [Example 4, 2-(4-Dibutylaminopropoxyphenyl)-7-methylimidazo[1,2-a]pyridine], for which the IC50 in assay [1] turned out to be 6000 nM. Further, in assay [2], the minimal effective concentration was 1000 µg/mL. Moreover, in assay [3], the inhibition at 10 µM is 46%.
With `CCCCN(CCCC)CCCOc1ccc(-c2cn3cccc(O)c3n2)cc1` [Example 5, 2-(4-Dibutylaminopropoxyphenyl)-8-hydroxyimidazo[1,2-a]pyridine], the minimal effective concentration in assay [2] is 10000 µg/mL.
On to `CCCCN(CCCC)CCCOc1ccc(-c2cn3cccc(OCc4ccccc4)c3n2)cc1` [Example 6, 2-(4-Dibutylaminopropoxyphenyl)-8-benzloxyimidazo[1,2-a]pyridine], for which the IC50 in assay [1] is over 8000 nM. Moreover, the minimal effective concentration in assay [2] is 1000 µg/mL. In the assay with gastric acid secretion, the change in vivo at 20 mg/kg is -16%. In assay [3], the inhibition at 10 µM was 35%.
In the same order, the values of `CCCCN(CCCC)CCCOc1ccc(-c2nc3c(C)cccn3c2C)cc1` [Example 7, 2-(4-Dibutylaminopropoxyphenyl)-3,8-dimethylimidazo[1,2-a]pyridine] are 1900 nM, 1000 µg/mL, -54% and 27%.
Regarding `CCCCN(CCCC)CCCOc1ccc(C(=O)c2cn3cccc(C)c3n2)cc1` [Example 8, 2-(4-Dibutylaminopropoxybenzoyl)-8-methylimidazo[1,2-a]pyridine], the IC50 in assay [1] was 600 nM. Also, the minimal effective concentration in assay [2] worked out at 10000 µg/mL. Further, in the assay with gastric acid secretion, the change in vivo at 20 mg/kg is -27%. For the same compound, the inhibition at 10 µM in assay [3] is 58%.
`CCCCN(CCCC)CCCOc1ccc(C(=O)c2cn3c(C)cc(C)cc3n2)cc1` [Example 9, 2-(4-Dibutylaminopropoxybenzoyl)-5,7-dimethylimidazo[1,2-a]pyridine]: the IC50 in assay [1] is 2200 nM. Also, the minimal effective concentration in assay [2] came to 10000 µg/mL. Moreover, the change in vivo at 20 mg/kg in the assay with gastric acid secretion was -27%. Further, in assay [3], the inhibition at 10 µM came to 39%.
Regarding `CCCCN(CCCC)CCCOc1ccc(C(=O)c2cn3ccc(C)cc3n2)cc1` [Example 10, 2-(4-Dibutylaminopropoxybenzoyl)-7-methylimidazo[1,2-a]pyridine], the IC50 in assay [1] is 1600 nM. Also, in assay [2], the minimal effective concentration turned out to be 10000 µg/mL. Besides, the inhibition at 10 µM in assay [3] was found to be 42%.
The corresponding values for `CCCCN(CCCC)CCCOc1ccc(C(=O)c2cn3cccc(OCc4ccccc4)c3n2)cc1` [Example 11, 2-(4-Dibutylaminopropoxybenzoyl)-8-benzyloxyimidazo[1,2-]pyridine] are 2300 nM, 1000 µg/mL and 18%.
As for `CCCCN(CCCC)CCCOc1ccc(C(=O)c2cn3cc(Br)ccc3n2)cc1` [Example 12], the IC50 in assay [1] stood at 3000 nM. Besides, the minimal effective concentration in assay [2] is 10000 µg/mL.
With `CCCCN(CCCC)CCCOc1ccc(C(=O)c2cnc3c(C)cccn23)cc1` [Example 13, 3-(4-Dibutylaminopropoxybenzoyl)-8-methylimidazo[1,2-a]pyridine], the IC50 in assay [1] came out at 530 nM. The minimal effective concentration in assay [2] is 1000 µg/mL. Further, the change in vivo at 40 mg/kg in the assay with gastric acid secretion (40 mg/kg) is -49%. Moreover, the inhibition at 10 µM in assay [3] is 56%.
On to `CCCCN(CCCC)CCCOc1ccc(C(=O)c2cnc3ccc(Br)cn23)cc1` [Example 14, 3-(4-Dibutylaminopropoxybenzoyl)-6-bromoimidazo[1,2-a]pyridine], for which, in assay [1], the IC50 amounted to 200 nM. The minimal effective concentration in assay [2] is 1000 µg/mL. Moreover, in the assay on gastric acid secretion, the change in vivo at 20 mg/kg is -18%. Further, the inhibition at 10 µM in assay [3] was found to be 62%.

One may read the IC50 as the point on the concentration scale where inhibition reaches its midpoint. As a reminder, the inhibition is the change of the read-out against control, counted positive when it falls.
